Data: patent publication US8969389B2, “Substituted 6-methylnicotinamides as mGluR5 positive allosteric modulators” (Vanderbilt University, priority 2010, dated 2015)
pEC50: −log10 of the molar value. Read-outs that look alike come from different tables or passages of the source.

Biological target: T1, rat mGluR5 (Rattus norvegicus, UniProt P31424)
T1 construct: expressed in transfected cells; host or cells: HEK (human embryonic kidney) cells
Test: Potentiation of glutamate response in HEK cells transfected with rat mGluR5 (Ca2+ fluorescence, FDSS)
Format: cell-based
Method: Human embryonic kidney (HEK) cells transfected with rat mGluR5 were plated in clear bottom assay plates for assay in a Functional Drug Screening System (FDSS). In the alternative assay, HEK cells transfected with human mGluR5 (H10H cell line) were plated for assay in the FDSS. […] The cells were loaded with a Ca^2+-sensitive fluorescent dye (e.g., Fluo-4), and the plates were washed and placed in the FDSS instrument. After establishment of a fluorescence baseline for twelve seconds, the compounds of the present invention were added to the cells, and the response in cells was measured. Five minutes later, an mGluR5 agonist (e.g., glutamate, 3,5-dihydroxyphenylglycine, or quisqualate) was added to the cells, and the response of the cells was measured. Potentiation of the agonist response of mGluR5 by the compounds in the present invention was observed as an increase in response to non-maximal concentrations of agonist (here, glutamate) in the presence of compound compared to the response to agonist in the absence of compound.
The above described assay operated in two modes. In the first mode, a range of concentrations of the present compounds were added to cells, followed by a single fixed concentration of agonist. If a compound acted as a potentiator, an EC50 value for potentiation and a maximum extent of potentiation by the compound at this concentration of agonist was determined by non-linear curve fitting. In the second mode, several fixed concentrations of the present compounds were added to various wells on a plate, followed by a range of concentrations of agonist for each concentration of present compound; the EC50 values for the agonist at each concentration of compound were determined by non-linear curve fitting. A decrease in the EC50 value of the agonist with increasing concentrations of the present compounds (a leftward shift of the agonist concentration-response curve) is an indication of the degree of mGluR5 potentiation at a given concentration of the present compound. An increase in the EC50 value of the agonist with increasing concentrations of the present compounds (a rightward shift of the agonist concentration-response curve) is an indication of the degree of mGluR5 antagonism at a given concentration of the present compound. The second mode also indicates whether the present compounds also affect the maximum response to mGluR5 to agonists.

[1] = HEK cells transfected with rat mGluR5, read-out: rmGlu5 PAM EC50
[2] = (R) and (S) enantiomers, Tables 3A/3B, read-out: mGluR5 EC50

T1 sequence (P31424 21-1203): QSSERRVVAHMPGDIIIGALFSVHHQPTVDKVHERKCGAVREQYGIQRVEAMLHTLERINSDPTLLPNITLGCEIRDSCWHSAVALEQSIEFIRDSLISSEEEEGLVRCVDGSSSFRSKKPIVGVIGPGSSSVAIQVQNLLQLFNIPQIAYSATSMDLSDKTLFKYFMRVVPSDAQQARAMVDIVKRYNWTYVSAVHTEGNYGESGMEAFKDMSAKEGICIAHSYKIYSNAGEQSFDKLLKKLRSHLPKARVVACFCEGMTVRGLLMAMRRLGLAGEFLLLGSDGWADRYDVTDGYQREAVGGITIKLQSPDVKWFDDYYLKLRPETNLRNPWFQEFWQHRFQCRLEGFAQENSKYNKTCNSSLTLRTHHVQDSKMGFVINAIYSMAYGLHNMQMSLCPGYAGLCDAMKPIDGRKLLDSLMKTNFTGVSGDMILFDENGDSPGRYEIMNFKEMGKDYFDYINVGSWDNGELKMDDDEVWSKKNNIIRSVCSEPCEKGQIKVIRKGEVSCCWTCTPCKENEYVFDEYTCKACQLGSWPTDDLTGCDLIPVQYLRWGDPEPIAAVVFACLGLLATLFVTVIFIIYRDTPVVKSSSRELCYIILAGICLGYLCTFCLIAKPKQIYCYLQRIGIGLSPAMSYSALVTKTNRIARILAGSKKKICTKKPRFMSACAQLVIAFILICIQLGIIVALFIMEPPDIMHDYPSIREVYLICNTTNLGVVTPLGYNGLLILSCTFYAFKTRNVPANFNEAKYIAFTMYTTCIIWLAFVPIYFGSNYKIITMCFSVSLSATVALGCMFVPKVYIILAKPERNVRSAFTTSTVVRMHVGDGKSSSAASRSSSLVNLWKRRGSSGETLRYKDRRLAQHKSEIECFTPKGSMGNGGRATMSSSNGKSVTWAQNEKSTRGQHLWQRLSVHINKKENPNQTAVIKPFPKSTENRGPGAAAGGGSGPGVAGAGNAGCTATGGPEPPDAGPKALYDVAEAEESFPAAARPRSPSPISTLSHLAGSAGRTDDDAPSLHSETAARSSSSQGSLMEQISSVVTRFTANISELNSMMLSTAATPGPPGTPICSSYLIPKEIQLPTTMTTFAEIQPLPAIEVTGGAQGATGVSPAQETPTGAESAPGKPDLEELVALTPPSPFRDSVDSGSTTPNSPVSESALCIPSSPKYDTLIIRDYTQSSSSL

| Compound | pEC50 [1] | other results |
| --- | --- | --- |
| O=C(NC1CCCCC1)c1ccc(COc2cccc(F)c2)nc1 | 6.35 | – |
| CC(C)(C)CCNC(=O)c1ccc(COc2cc(F)cc(F)c2)nc1 | 5.80 | – |
| O=C(NC1(c2ccccc2)CCC1)c1ccc(COc2cccc(F)c2)nc1 | 6.04 | – |
| C[C@H](NC(=O)c1ccc(COc2cc(F)cc(F)c2)nc1)C1CCCCC1 [Example 12b, (S)-N-(1-cyclohexylethyl)-6-((3,5-difluorophenoxy)methyl)nicotinamide] | – | pEC50 [2]: < 5.00 |
| O=C(Nc1ccc(Cl)cn1)c1ccc(COc2ccccc2)nc1 | < 5.00 | – |
| O=C(NCC1CC1)c1ccc(COc2ccccc2)nc1 | < 5.00 | – |
| O=C(NC1CCC1)c1ccc(COc2ccccc2)nc1 | 5.33 | – |
| CC(C)NC(=O)c1ccc(COc2ccccc2)nc1 | < 5.00 | – |
| O=C(NC1(c2ccccc2)CCC1)c1ccc(COc2ccccc2)nc1 | < 5.00 | – |
| C[C@H](NC(=O)c1ccc(COc2cccc(F)c2)nc1)C1CCCCC1 [drawing 152] | < 5.00 | – |
| O=C(NCc1ccccn1)c1ccc(COc2ccccc2)nc1 | < 5.00 | – |
| CC(NC(=O)c1ccc(COc2ccccc2)nc1)C1CCCCC1 (stereo not shown) | 6.73 | – |
| O=C(NC1CC2CCC1C2)c1ccc(COc2ccccc2)nc1 (stereo not shown) [drawing 70] | 6.82 | – |
| C[C@@H](NC(=O)c1ccc(COc2cc(F)cc(C#N)c2)nc1)C1CCCCC1 | < 5.00 | – |
| N#Cc1cc(F)cc(OCc2ccc(C(=O)NC3CCC3)cn2)c1 | < 5.00 | – |
| O=C(Nc1nncs1)c1ccc(COc2ccccc2)nc1 | < 5.00 | – |
| C[C@@H](NC(=O)c1ccc(COc2ccccc2Cl)nc1)C1CCCCC1 | < 5.00 | – |
| C[C@@H](NC(=O)c1ccc(COc2cccnc2)nc1)C1CCCCC1 [drawing 107] | 5.35 | – |
| CN(C)CCCNC(=O)c1ccc(COc2ccccc2)nc1 | < 5.00 | – |
| C[C@@H](NC(=O)c1ccc(COc2cc(F)cc(F)c2)nc1)C1CCCCC1 [Example 12a, (R)-N-(1-cyclohexylethyl)-6-((3,5-difluorophenoxy)methyl)nicotinamide] | – | pEC50 [2]: 6.51 |

| Compound | pEC50 [1] | other results |
| --- | --- | --- |
| C[C@@H](NC(=O)c1ccc(COc2ccc(F)cc2)nc1)C1CCCCC1 | 6.44 | – |
| C[C@@H](NC(=O)c1ccc(COc2cccc(F)c2)nc1)C1CC1 | 5.97 | – |
| CC(C)NC(=O)c1ccc(COc2cc(F)cc(F)c2)nc1 | < 5.00 | – |
| O=C(NC1CC2CCC1C2)c1ccc(COc2cccc(F)c2)nc1 (stereo not shown) | 7.12 | – |
| O=C(NC1CCc2ccccc21)c1ccc(COc2ccccc2)nc1 (stereo not shown) [drawing 138] | < 5.00 | – |
| O=C(Nc1cccc(C(F)(F)F)c1)c1ccc(COc2ccccc2)nc1 | < 5.00 | – |
| C[C@@H](NC(=O)c1ccc(COc2cc(F)cc(F)c2)nc1)C1CCCCC1 [drawing 81] | 6.51 | – |
| C[C@H](NC(=O)c1ccc(COc2cccc(F)c2)nc1)C1CCCCC1 [Example 11b, (S)-N-(1-cyclohexylethyl)-6-((3-fluorophenoxy)methyl)nicotinamide] | – | pEC50 [2]: < 5.00; pEC50 (S configuration enantiomer, read-out: mGluR5 potentiator EC50): < 5.00 |
| C[C@H](NC(=O)c1ccc(COc2cccc(F)c2)nc1)C(C)(C)C [Example 13b, (S)-N-(3,3-dimethylbutan-2-yl)-6-((3-fluorophenoxy)methyl)nicotinamide] | – | pEC50 [2]: < 5.00 |
| O=C(Nc1ccc(Cl)cc1F)c1ccc(COc2ccccc2)nc1 | < 5.00 | – |
| O=C(Nc1ccccc1F)c1ccc(COc2ccccc2)nc1 | 6.30 | – |
| C[C@@H](NC(=O)c1ccc(COc2ccccc2)nc1)C1CCCCC1 [drawing 69] | 6.84 | – |
| C[C@H](NC(=O)c1ccc(COc2cc(F)cc(C#N)c2)nc1)C1CCCCC1 | < 5.00 | – |
| O=C(NC1CCc2ccccc21)c1ccc(COc2ccccc2)nc1 (stereo not shown) [drawing 113] | < 5.00 | – |
| COCC(C)NC(=O)c1ccc(COc2cccc(F)c2)nc1 (stereo not shown) | < 5.00 | – |
| O=C(Nc1ccc(F)cc1)c1ccc(COc2ccccc2)nc1 | < 5.00 | – |
| C[C@@H](NC(=O)c1ccc(COc2ccccc2F)nc1)C1CCCCC1 | 6.80 | – |
| C[C@@H](NC(=O)c1ccc(COc2cccnc2)nc1)C1CCCCC1 [drawing 109] | 5.31 | – |
| O=C(N[C@H](C1CC1)C(F)(F)F)c1ccc(COc2cccc(F)c2)nc1 | < 5.00 | – |
